Assay results reported in patent US20060057104A1, “Methods for stimulating tlr irf3 pathways for inducing anti-microbial, anti-inflammatory and anticancer responses” (THE Regents of the University of California Office of the …, priority 2002, published 2006).

Experiments:
[1] = test system: RAW 264.7 murine macrophage cell line; assay: Apoptosis by TUNNEL assay in RAW 264.7 cells, laser scanner cytometry; format: cell-based; conditions: RAW 264.7, two 24 h intervals; 10 ng/ml Lipid A or 10 mg/ml poly I:C
Procedure: The RAW 264.7 murine macrophage cell line was treated for two 24 h intervals with media alone (control), 10 ng/ml Lipid A (Lipid A) or 10 mg/ml poly I:C. In addition, as a positive control for apoptosis, another set of cells was treated with 3% H2O2 for 2 hours. Following fixation and permeablization, apoptosis was measured by the TUNNEL assay using the Death kit (Roche). Apoptotic cells are visualized by an increase in fluorescence (FITC) and detected by laser scanner cytometry (LSC). […] The cell cycle is divided into G1 (red), S-phase (yellow) and G2/M (blue). Thus, TLR3/4 activation promotes apoptosis at all stages of the cell cycle (FIG. 16).

STAT1 = conditions: lipid A 1 ng/ml, poly I:C 1 μg/ml
Procedure: BMMs from both wild-type and IFNAR−/− mice were stimulated with lipid A (1 ng/ml), poly I:C (1 μg/ml), CpG (100 nM), or fresh medium (M) for the indicated time periods, as described in Example 2, infra.
(A): Cell lysates were subjected to western blotting analyses to detect phosphorylated STAT1 (P-STAT1) and total STAT1.
For STAT1 immunoblotting, cells were lysed in modified RIPA buffer and 20 μg of protein were loaded per lane and separated by SDS-PAGE. Gels were transferred to nitrocellulose filters and immunoblotted using the antibody manufacturers' recommended instructions. Antibodies specific to the STAT1 or the phosphorylated forms of STAT1 were obtained from Cell Signaling Technologies and Santa Cruz Biotechnologies, respectively. The anti-MyD88 antibody was purchased from ProSci Incorporated. For detection of MHV68, equal amounts were loaded in each lane and analyzed by western blotting techniques using rabbit anti-M9. Blots were stripped and re-probed with anti-actin (Sigma) to verify equal loading.
To address this issue we stimulated IFNAR^−/− BMMs with lipid A and poly I:C and assayed for STAT1 phosphorylation.

MHV68 [2] = assay: MHV68 replication in BMMs treated with TLR ligands (immunoblot of viral proteins); format: cell-based, Murine gammaherpesvirus 68; conditions: MOI=5, 48 hours, 10, 1 or 0.1 ng/ml lipid A, 100 nM CpG, 10 μg/ml PGN, 1, 0.1 or 0.01 μg/ml poly I:C
Procedure: (E) BMMs were infected with MHV68 (moi=5) and simultaneously treated with the indicated TLR ligands (100 nM CpG; 10, 1, or 0.1 ng/ml lipid A; 10 μg/ml PGN; or 1, 0.1, or 0.01 μg/ml poly I:C). After 48 hr, cells were harvested and analyzed for MHV68 replication proteins by immunoblotting using rabbit anti-MHV68 antibodies.
Murine gammaherpesvirus 68 (MHV68) was produced and titered as previously described (Wu, T.-T., Tong, L., Rickabaugh, T., Speck, S., and Sun, R. (2001), J. Virol. 75, 9262-9273). For infection of macrophages, cells were simultaneously treated with PAMPs and infected with MHV68 at an MOI of 5. Following an incubation period of 48 hours cells were lysed in Laemmli buffer and 10% of total volume was subjected to SDS-PAGE, transferred to nitrocellulose, and MHV68 proteins detected by western blotting.
BMMs were simultaneously infected with MHV68 (MOI=5) and treated with various TLR ligands (10, 1 or 0.1 ng/ml lipid A, 100 nM CpG, 10 μg/ml PGN or 1, 0.1, or 0.01 μg/ml poly I:C) for 48 hours, and replication of viral proteins was then assayed by western blot analysis. […] This was true whether BMMs were treated with 10 or 20 μg/ml PGN and the inhibition was always considerably weaker than that caused by either 1 ng/ml lipid A or 1 μg/ml poly I:C.

MHV68 [3] = assay: MHV68 viral replication assay in wild-type and IFNAR−/− BMMs (M9 western blot); format: cell-based, Murine gammaherpesvirus 68; conditions: MOI 5, 48 h, co-treatment
Procedure: (B) For viral replication assays, BMMs were simultaneously stimulated with PAMPs (10, 1, or 0.1 ng/ml lipid A, or 1, 0.1, or 0.01 μg/ml poly(I:C)) and infected with MHV68 using a multiplicity of infection of five. Cell lysates were harvested at 48 h postinfection and subjected to Western blotting analysis using an Ab specific to the MHV68 protein M9. Actin levels were also assayed to ensure equal loading. The data represent two independent experiments.
A129 (IFNAR-1^−/−) (Muller, U., U. Steinhoff, L. F. L. Reis, S. Hemmi, J. Pavlovic, R. M. Zinkernagel, and M. Aguet. 1994. Functional role of type I and type II interferons in antiviral defense. Science 264:1918) and B6129SF2/J wild type control mice were obtained from B&K Universal Ltd. and Jackson Laboratories, respectively. C57/B6 mice were used for all experiments not involving the A129 mice (Jackson Laboratories). Specific TLR activation was achieved using F-583 (Rd mutant) E. coli lipid A for TLR4 (Sigma), CpG oligonucleotides for TLR9 (Invitrogen) and poly I:C for TLR3 (Pharmacia). […]
Using the MHV68 protein M9 as a readout for viral load, we show in FIG. 13B that the antiviral activity of macrophage cells infected with MHV68 was abolished in the absence of IFNAR despite co-treatment with either lipid A or poly I:C. […]

lipid A
increase in apoptotic cells [1]: 10 fold
STAT1 activation in IFNAR−/− macrophage cells (STAT1): abolished
inhibition of MHV68 replication (MHV68 [2]): significantly inhibit MHV68 replication in a concentration dependent manner
antiviral activity against MHV68 in the absence of IFNAR (MHV68 [3]): abolished

poly I:C
increase in apoptotic cells [1]: 100 fold
STAT1 activation in IFNAR−/− macrophage cells (STAT1): abolished
inhibition of MHV68 replication (MHV68 [2]): significantly inhibit MHV68 replication in a concentration dependent manner
antiviral activity against MHV68 in the absence of IFNAR (MHV68 [3]): abolished
